Experimental data: ChEMBL document CHEMBL1140598, “A review of anti-infective and anti-inflammatory chalcones” (Eur J Med Chem, 2007)
Values after ≈ are worked out from the molar mass of the structure shown.

Key:
Plasmodium falciparum [1] = assay: Antimalarial activity against chloroquine-resistant Plasmodium falciparum K1 by [3H]hypoxanthine incorporation; assay type: functional, organism-based
Colletotrichum truncatum [2] = assay: Antifungal activity against Colletotrichum truncatum CE175; assay type: functional, Glomerella truncata
Diaporthe longicolla = assay: Antifungal activity against Phomopsis longicolla Hobbs CE117; assay type: functional
Plasmodium falciparum [3] = assay: Antimalarial activity against Plasmodium falciparum; assay type: functional, organism-based
Leishmania amazonensis [4] = assay: Antileishmanial activity against Leishmania amazonensis intracellular amastigotes; assay type: functional; conditions: read-out: ED50 (the source's name)
Leishmania amazonensis [5] = assay: Antileishmanial activity against Leishmania amazonensis promastigotes; assay type: functional; conditions: read-out: ED50 (the source's name)
[6] = tested on: Mycobacterium tuberculosis; assay: Antibacterial activity against Mycobacterium tuberculosis H37Rv at 12.5 ug/mL; assay type: functional
Colletotrichum truncatum [7] = assay: Antifungal activity against Colletotrichum capsici; assay type: functional
[8] = tested on: Cladosporium cladosporioides; assay: Fungicidal activity against Cladosporium cladosporioides; assay type: functional
RAW = assay: Inhibition of nitric oxide production in LPS-stimulated mouse RAW 264.7 cells; assay type: functional, cell-based
Trypanosoma cruzi = assay: Growth inhibition of Trypanosoma cruzi epimastigotes; assay type: functional, organism-based
Leishmania braziliensis = assay: Growth inhibition of Leishmania braziliensis promastigotes; assay type: functional, organism-based
Microsporum = assay: Antifungal activity against Microsporum gypseum; assay type: functional
Microsporum canis = assay: Antifungal activity against Microsporum canis; assay type: functional
Trichophyton benhamiae = assay: Antifungal activity against Trichophyton mentagrophytes; assay type: functional, Arthroderma benhamiae
Trichophyton rubrum = assay: Antifungal activity against Trichophyton rubrum; assay type: functional
Epidermophyton floccosum = assay: Antifungal activity against Epidermophyton floccosum; assay type: functional
Protease = Protease (Human immunodeficiency virus 1, UniProt Q9YQ12); assay: Inhibition of HIV1 protease
Chain of Protease (Q9YQ12 whole entry): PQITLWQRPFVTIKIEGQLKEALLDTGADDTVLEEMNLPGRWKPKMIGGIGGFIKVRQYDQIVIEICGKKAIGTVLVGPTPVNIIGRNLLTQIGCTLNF

[9] = target: Protease (Human immunodeficiency virus 1) (UniProt Q9YQ12); assay: Inhibition of HIV1 protease at 50 ug/mL
Chain of Protease (Human immunodeficiency virus 1) (Q9YQ12 as listed by the source): as the sequence (Q9YQ12 whole entry) above

Leishmania major = assay: Growth inhibition of Leishmania major promastigotes assessed as [3H]thymidine incorporation; assay type: functional, organism-based
[10] = Inhibition of Leishmania donovani solubilized fumarate reductase
Leishmania donovani [11] = assay: Inhibition of Leishmania donovani amastigotes in human monocyte-derived macrophages; assay type: functional, organism-based
Plasmodium falciparum [12] = assay: Inhibition of ring to schizont stage maturation in Plasmodium falciparum NF54 at 50 ug/mL; assay type: functional
Plasmodium falciparum [13] = assay: Inhibition of ring to schizont stage maturation in Plasmodium falciparum NF54 at 10 ug/mL; assay type: functional
[14] = tested on: Lactiplantibacillus plantarum; assay: Antibacterial activity against Lactobacillus plantarum; assay type: functional
Bacillus subtilis = assay: Antibacterial activity against Bacillus subtilis; assay type: functional
[15] = Inhibition of Leishmania major NADH dehydrogenase
Lactococcus lactis = assay: Antibacterial activity against Streptococcus lactis; assay type: functional
Helicobacter pylori = assay: Growth inhibition of Helicobacter […]; assay type: functional
Streptococcus mutans = assay: Antibacterial activity against […]; assay type: functional
Mycobacterium kansasii = assay: Antibacterial activity against Mycobacterium kansasii; assay type: functional
[16] = Inhibition of Leishmania major succinate-cytochrome c reductase
[17] = tested on: Geobacillus stearothermophilus; assay: Antibacterial activity against Bacillus stearothermophilus; assay type: functional
[18] = Inhibition of Leishmania major succinate dehydrogenase in human PBMCs crude mitochondria after 60 mins
Heyndrickxia coagulans = assay: Antibacterial activity against Bacillus coagulans; assay type: functional
Staphylococcus aureus [19] = assay: Antibacterial activity against methicillin-resistant Staphylococcus aureus OM505; assay type: functional
Bacillus cereus = assay: Antibacterial activity against Bacillus cereus; assay type: functional
Staphylococcus aureus [20] = assay: Antibacterial activity against methicillin-sensitive Staphylococcus aureus Smith; assay type: functional
Staphylococcus aureus [21] = assay: Antibacterial activity against methicillin-sensitive Staphylococcus aureus FDA209P; assay type: functional
[22] = Inhibition of Leishmania major succinate dehydrogenase
Plasmodium falciparum [23] = assay: Antiplasmodial activity against chloroquine-resistant Plasmodium falciparum W2; assay type: functional, organism-based
Staphylococcus aureus [24] = assay: Antibacterial activity against methicillin-resistant Staphylococcus aureus OM481; assay type: functional
Staphylococcus aureus [25] = assay: Antibacterial activity against Staphylococcus aureus; assay type: functional, organism-based
[26] = Inhibition of Leishmania donovani fumarate reductase in after 60 mins
[27] = tested on: Mycobacterium tuberculosis; assay: Antibacterial activity against Mycobacterium tuberculosis; assay type: functional
Enterococcus faecium = assay: Antibacterial activity against Enterococcus faecium; assay type: functional
Staphylococcus aureus [28] = assay: Antibacterial activity against methicillin-resistant Staphylococcus aureus ST28; assay type: functional
Clostridium sporogenes = assay: Antibacterial activity against Clostridium sporogenes; assay type: functional
[29] = Inhibition of Leishmania major NADH-cytochrome c reductase
Mycobacterium xenopi = assay: Antibacterial activity against Mycobacterium xenopi; assay type: functional
Plasmodium falciparum [30] = assay: Antiplasmodial activity against chloroquine-sensitive Plasmodium falciparum D6; assay type: functional, organism-based
Enterococcus faecalis = assay: Antibacterial activity against Enterococcus faecalis; assay type: functional
Staphylococcus aureus [31] = assay: Antibacterial activity against methicillin-resistant Staphylococcus aureus K3; assay type: functional
[32] = tested on: Lactobacillus acidophilus; assay: Antibacterial activity against Lactobacillus acidophilus; assay type: functional
Mycobacterium marinum = assay: Antibacterial activity against Mycobacterium marinum; assay type: functional
[33] = Inhibition of Leishmania major NADH-dehydrogenase in human PBMCs crude mitochondria after 60 mins
Leishmania donovani [34] = assay: Antileishmanial activity against Leishmania donovani promastigotes at 50 ug/mL; assay type: functional
Leishmania donovani [35] = assay: Antileishmanial activity against Leishmania donovani amastigotes in mouse macrophages at 50 ug/mL; assay type: functional

For `COc1ccc(C(=O)/C=C/c2ccc(F)cc2F)c(OC)c1`, the IC50 (Plasmodium falciparum [1]) was 6.5 µM.

Work on `O=C(/C=C/c1ccccc1)c1ccc(O)cc1O` [2',4'-DIHYDROXYCHALCONE] yielded an MIC (Colletotrichum truncatum [2]) of 6.25 µg/mL (≈ 26 µM) and an MIC (Diaporthe longicolla) of 6.25 µg/mL (≈ 26 µM).

For `O=C(Nc1ccc(Cl)cc1)Nc1ccc(C(=O)/C=C/c2ccc(Cl)cc2Cl)cc1`, the IC50 (Plasmodium falciparum [3]) was 1.76 µM.

In the case of `COc1cc(O)c(C(=O)/C=C/c2ccccc2)c(O)c1`, the EC50 (Leishmania amazonensis [4]) is reported as 24 µg/mL (≈ 88.8 µM) and the EC50 (Leishmania amazonensis [5]) is reported as 0.5 µg/mL (≈ 1.85 µM).

With `COc1ccc(/C=C/C(=O)c2ccc(OC)cc2OC)c(OC)c1` the IC50 (Plasmodium falciparum [1]) was 6.5 µM.

Compound `O=C(/C=C/c1cccc(I)c1)c1ccccc1O` has an inhibition at 12.5 µg/mL [6] of 90%.

Compound `Cc1ccc(/C=C/C(=O)c2ccc(C)cc2)cc1` [4,4'-DIMETHYLCHALCONE] has an MIC (Colletotrichum truncatum [7]) of 6.25 µg/mL (≈ 26.4 µM).

Work on `CC1(C)CCc2c(O)ccc(C(=O)/C=C/c3ccc(O)cc3)c2O1` yielded an MIC [8] of 2 µg.

Work on `COc1cc(/C=C/C(=O)c2ccc(NC(=O)Nc3ccc(Cl)cc3)cc2)cc(OC)c1OC` yielded an IC50 (Plasmodium falciparum [3]) of 1.76 µM.

With `COc1ccc(OC)c(C(=O)/C=C/c2ccc(N(C)C)cc2)c1` the IC50 (RAW) was 0.7 µM.

Compound `O=C(/C=C/c1ccc(Cl)cc1)c1ccccc1` [4-CHLORO CHALCONE] has an IC50 (Trypanosoma cruzi) of 21.9 µM.

`O=C(Nc1ccc(Cl)cc1)Nc1ccc(C(=O)/C=C/c2ccc(F)cc2F)cc1` gave an IC50 (Plasmodium falciparum [3]) of 1.76 µM.

For `O=C(/C=C/c1ccccc1)c1ccccc1` [CHALCONE], the IC50 (Leishmania braziliensis) was 13.7 µM.

For `COc1cccc(/C=C/C(=O)c2ccc(Br)cc2)c1`, the MIC (Microsporum) was 1.5 µg/mL (≈ 4.73 µM), the MIC (Microsporum canis) was 25 µg/mL (≈ 78.8 µM) and the MIC (Trichophyton benhamiae) was 3 µg/mL (≈ 9.46 µM). The MIC (Trichophyton rubrum) was 3 µg/mL (≈ 9.46 µM) and the MIC (Epidermophyton floccosum) was 0.5 µg/mL (≈ 1.58 µM).

`CCc1ccc(/C=C/C(=O)c2ccc(OC)cc2OC)cc1` showed an IC50 (Plasmodium falciparum [1]) of 6.5 µM.

`COc1cc(O)cc(O)c1C(=O)/C=C/c1ccccc1` [CARDAMOMIN] showed an IC50 (Protease) of 115 µM and an inhibition [9] of 75.1%.

For `O=C(/C=C/c1ccccc1)c1ccccc1O` [2'-HYDROXYCHALCONE], the inhibition at 12.5 µg/mL [6] was 61%.

In the case of `C=CCOc1ccc(C(=O)/C=C/c2ccc(OC)cc2OC)cc1`, the IC50 (Leishmania major) is reported as 4 µM, the IC50 [10] is reported as 153 µM and the IC50 (Leishmania donovani [11]) is reported as 0.65 µM.

In the case of `COc1ccc(C(=O)/C=C/c2ccc(C(F)(F)F)cc2)c(OC)c1OC`, the IC50 (Plasmodium falciparum [1]) is reported as 6.5 µM.

In the case of `COc1cc(O)c(C(=O)/C=C/c2ccccc2Cl)c(OC)c1`, the MIC (Trichophyton rubrum) is reported as 12.5 µg/mL (≈ 39.2 µM).

With `COc1ccc(/C=C/C(=O)c2ccccc2O)c(OC)c1` the IC50 (Leishmania major) was 4 µM and the IC50 (Leishmania donovani [11]) was 0.65 µM.

`COc1cc(/C=C/C(=O)c2ccc(O)c(CC=C(C)C)c2O)ccc1O` [CROTAORIXIN] gave an inhibition at 50 µg/mL (Plasmodium falciparum [12]) of 100% and an inhibition at 10 µg/mL (Plasmodium falciparum [13]) of 100%.

In the case of `COc1cccc(OC)c1C(=O)/C=C/c1ccc(N(C)C)cc1`, the IC50 (RAW) is reported as 0.6 µM.

For `O=C(/C=C/c1cccc(Cl)c1)c1ccccc1O`, the inhibition at 12.5 µg/mL [6] was 90%.

For `C=CC(C)(C)c1cc(/C=C/C(=O)c2ccc(O)cc2)c(OC)cc1O` [LICOAGROCHACONE A], the MIC [14] was 5 µg/mL (≈ 14.8 µM), the MIC (Bacillus subtilis) was 2 µg/mL (≈ 5.91 µM) and the IC50 [15] was 460 µM. It also gave an MIC (Lactococcus lactis) of 8 µg/mL (≈ 23.6 µM), an MIC (Helicobacter pylori) of 25 µg/mL (≈ 73.9 µM) and an MIC (Streptococcus mutans) of 5 µg/mL (≈ 14.8 µM). For the same compound, the MIC (Mycobacterium kansasii) was ≤ 20 µg/mL, the IC50 [16] was 1520 µM and the IC50 (Leishmania major) was 4 µM. The MIC [17] was 2 µg/mL (≈ 5.91 µM), the IC50 [18] was 1400 µM and the MIC (Heyndrickxia coagulans) was 2 µg/mL (≈ 5.91 µM). For the same compound, the MIC (Staphylococcus aureus [19]) was 16 µg/mL (≈ 47.3 µM), the MIC (Bacillus cereus) was 3 µg/mL (≈ 8.87 µM) and the MIC (Staphylococcus aureus [20]) was 3.13 µg/mL (≈ 9.25 µM). The MIC (Staphylococcus aureus [21]) was 16 µg/mL (≈ 47.3 µM), the IC50 [22] was 593 µM and the IC50 (Plasmodium falciparum [23]) was 10.3 µM. The MIC (Staphylococcus aureus [24]) was 16 µg/mL (≈ 47.3 µM), the MIC (Staphylococcus aureus [25]) was 3 µg/mL (≈ 8.87 µM) and the IC50 [26] was 14 µM. For the same compound, the MIC [27] was ≤ 20 µg/mL, the MIC (Enterococcus faecium) was 6 µg/mL (≈ 17.7 µM) and the MIC (Staphylococcus aureus [28]) was 6.25 µg/mL (≈ 18.5 µM). The MIC (Clostridium sporogenes) was 8 µg/mL (≈ 23.6 µM), the IC50 [29] was 1980 µM and the MIC (Mycobacterium xenopi) was ≤ 20 µg/mL. For the same compound, the IC50 (Plasmodium falciparum [30]) was 10.3 µM, the IC50 (Leishmania donovani [11]) was 0.65 µM and the MIC (Enterococcus faecalis) was 6 µg/mL (≈ 17.7 µM). For the same compound, the MIC (Staphylococcus aureus [31]) was 6.25 µg/mL (≈ 18.5 µM), the MIC [32] was 5 µg/mL (≈ 14.8 µM) and the MIC (Mycobacterium marinum) was ≤ 20 µg/mL. It also gave an IC50 [33] of 1400 µM.

For `CC(C)=CCc1cc(/C=C/C(=O)c2ccc(O)cc2O)cc(O)c1O` [5'-PRENYLBUTEIN], the IC50 (Plasmodium falciparum [23]) was 10.3 µM and the IC50 (Plasmodium falciparum [30]) was 10.3 µM.

`CC1(C)C=Cc2c(ccc(C(=O)/C=C/c3ccc(O)cc3)c2O)O1` showed an Activity (Leishmania donovani [34]) of 84% and an Activity (Leishmania donovani [35]) of 74%.
